# According to ChEMBL document CHEMBL1158605, “Synthesis of novel beta-lactam fused spiroisoxazolidine chromanones and tetralones as potent antimicrobial agent for human and plant pathogens” (2010):
# Columns and labels:
# [1] = system: Proteus mirabilis; assay: Antibacterial activity against Proteus mirabilis; type: functional
# [2] = system: Fusarium oxysporum; assay: Antifungal activity against Fusarium oxysporum; type: functional
# [3] = system: Salmonella enterica; assay: Antibacterial activity against Salmonella typhi; type: functional, Salmonella enterica subsp. enterica serovar Typhi
# [4] = system: Proteus vulgaris; assay: Antibacterial activity against Proteus vulgaris; type: functional
# [5] = system: Staphylococcus aureus; assay: Antibacterial activity against Staphylococcus aureus; type: functional
# [6] = system: Macrophomina phaseolina; assay: Antifungal activity against Macrophomina phaseolina; type: functional
Structure (SMILES),MIC [1],MIC [2],MIC [3],MIC [4],MIC [5],MIC [6]
COc1ccc(N2C(=O)[C@H]3[C@@H]2[C@H]2[C@H](c4ccccc4)[C@]4(COc5ccccc5C4=O)ON2[C@@H]3C[Se]c2ccccc2)cc1,55 µg/mL,125 µg/mL,20 µg/mL,30 µg/mL,45 µg/mL,50 µg/mL
COc1ccc(N2C(=O)[C@H]3[C@@H]2[C@H]2[C@H](c4ccc(C)cc4)[C@]4(COc5ccccc5C4=O)ON2[C@@H]3C[Se]c2ccccc2)cc1,65 µg/mL,150 µg/mL,35 µg/mL,40 µg/mL,45 µg/mL,75 µg/mL
COc1ccc([C@H]2[C@@H]3[C@H]4[C@H](C(=O)N4c4ccc(OC)cc4)[C@@H](C[Se]c4ccccc4)N3O[C@@]23COc2ccccc2C3=O)cc1,25 µg/mL,125 µg/mL,45 µg/mL,15 µg/mL,40 µg/mL,75 µg/mL
COc1ccc(N2C(=O)[C@H]3[C@@H]2[C@H]2[C@H](c4ccc(Cl)cc4)[C@]4(COc5ccccc5C4=O)ON2[C@@H]3C[Se]c2ccccc2)cc1,20 µg/mL,75 µg/mL,25 µg/mL,10 µg/mL,20 µg/mL,50 µg/mL
COc1ccc(N2C(=O)[C@H]3[C@@H]2[C@H]2[C@H](c4ccc(Br)cc4)[C@]4(COc5ccccc5C4=O)ON2[C@@H]3C[Se]c2ccccc2)cc1,30 µg/mL,150 µg/mL,45 µg/mL,25 µg/mL,30 µg/mL,75 µg/mL
COc1ccc(N2C(=O)[C@H]3[C@@H]2[C@H]2[C@H](c4ccccc4)[C@]4(CCc5ccccc5C4=O)ON2[C@@H]3C[Se]c2ccccc2)cc1,55 µg/mL,125 µg/mL,45 µg/mL,40 µg/mL,25 µg/mL,75 µg/mL
COc1ccc(N2C(=O)[C@H]3[C@@H]2[C@H]2[C@H](c4ccc(C)cc4)[C@]4(CCc5ccccc5C4=O)ON2[C@@H]3C[Se]c2ccccc2)cc1,50 µg/mL,75 µg/mL,35 µg/mL,45 µg/mL,40 µg/mL,25 µg/mL
COc1ccc([C@H]2[C@@H]3[C@H]4[C@H](C(=O)N4c4ccc(OC)cc4)[C@@H](C[Se]c4ccccc4)N3O[C@@]23CCc2ccccc2C3=O)cc1,50 µg/mL,125 µg/mL,40 µg/mL,35 µg/mL,45 µg/mL,50 µg/mL
COc1ccc(N2C(=O)[C@H]3[C@@H]2[C@H]2[C@H](c4ccc(Cl)cc4)[C@]4(CCc5ccccc5C4=O)ON2[C@@H]3C[Se]c2ccccc2)cc1,40 µg/mL,50 µg/mL,30 µg/mL,45 µg/mL,35 µg/mL,25 µg/mL
COc1ccc(N2C(=O)[C@H]3[C@@H]2[C@H]2[C@H](c4ccc(Br)cc4)[C@]4(CCc5ccccc5C4=O)ON2[C@@H]3C[Se]c2ccccc2)cc1,50 µg/mL,150 µg/mL,35 µg/mL,35 µg/mL,45 µg/mL,75 µg/mL
COC(=O)Nc1nc2ccccc2[nH]1 [CARBENDAZIM],,18 µg/mL,,,,15 µg/mL
CN(C)[C@@H]1C(O)=C(C(N)=O)C(=O)[C@@]2(O)C(O)=C3C(=O)c4c(O)cccc4[C@@](C)(O)[C@H]3C[C@@H]12 [TETRACYCLINE],20 µg/mL,,15 µg/mL,15 µg/mL,10 µg/mL,
